The record followed here is paper PMC5971061, “Differential Effects of Linkers on the Activity of Amphiphilic Tobramycin Antifungals” (Molecules : A Journal of Synthetic Chemistry and Natural …, 2018).

Series [1] deals with Candida parapsilosis ATCC 22019 (strain J). Kind of series: MIC, broth microdilution (CLSI M27-A3), yeast strain J. As to conditions: Lodderomyces parapsilosis, ATCC22019; MIC-0, strain J, 35 °C 48 h. It counts as cell-based. The method, boiled down: (§1)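 Compounds were tested at final 0.24–62.5 μg/mL against yeast inocula of 1–5 × 10^3 CFU/mL in RPMI 1640, with caspofungin (final 0.03–31.3 μg/mL) as positive control. Incubation: 35 °C, 48 h.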
On the technique in general: Broth dilution looks for growth in wells or tubes with falling amounts of substance.

Series [2] has as its system Aspergillus flavus ATCC MYA-3631 (strain K). Kind of series: MIC, filamentous fungi (CLSI M38-A2), strain K. The format is cell-based. The following applies: MIC-0, strain K, 35 °C 72 h. A digest of the protocol: (§2)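 Spores from PDA cultures, inoculum 5 × 10^5 spores/mL in RPMI 1640 against two-fold serial dilutions (0.24–62.5 μg/mL for tobramycin derivatives). Incubated 72 h at 35 °C, triplicate.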

Series [3] concerns Candida parapsilosis clinical isolate CP3. Kind of series: MIC, broth microdilution (CLSI M27-A3), CP3. The format is cell-based. As to conditions: MIC-0, CP3, 35 °C 48 h. A digest of the protocol:
as §1

For series [4], the system named is murine red blood cells (mRBCs). In words: Hemolytic activity assay. It counts as cell-based. As to conditions: at 3.9 μg/mL, 2- to 8-fold their MIC values against the three C. neoformans clinical isolates. The method, then: (§3) The hemolytic activity of compounds 3, 4, 7a, 7b, and 9 as well as the parent compound TOB was determined by using previously described methods with minor modifications. Murine whole blood (1 mL) was suspended in 4 mL of PBS and centrifuged at 1000 rpm for 10 min at room temperature to obtain murine red blood cells (mRBCs). The mRBCs were washed four times in PBS and resuspended in the same buffer to a final concentration of 10^7 erythrocytes/mL. Two-fold serial dilutions of compounds 3, 4, 7a, 7b, and 9 were prepared using 100 μL of PBS buffer in Eppendorf tubes followed by the addition of 100 μL of mRBC suspension that made the final concentration of compounds and mRBCs to be 0.48–62.5 μg/mL and 5 × 10^6 erythrocytes/mL, respectively. The tubes were incubated at 37 °C for 1 h. The tubes with PBS buffer (200 μL) and Triton X-100® (1% v/v, 2 μL) served as the negative (blank) and positive controls, respectively. The percentage of hemolysis was calculated using the following equation: % hemolysis = [(absorbance of sample) − (absorbance of blank)] × 100/(absorbance of positive control).

A further series can be described thus: Hemolytic activity assay. It counts as cell-based, murine. The following applies: mouse, murine red blood cells (mRBCs). How it is done:
as §3

Series [5] deals with Aspergillus nidulans ATCC 38163 (strain L). In words: MIC, filamentous fungi (CLSI M38-A2), strain L. The format is cell-based. The following applies: MIC-0, strain L, 35 °C 72 h. The method, boiled down:
as §2

The test system of the next series is A549 cell line. In words: In vitro cytotoxicity assay (resazurin), A549. The format is cell-based, human. As to conditions: Homo sapiens; A549, 24 h, resazurin. How it is done: Mammalian cytotoxicity assays were performed as previously described with minor modifications. The normal human bronchial epithelial cells BEAS-2B and the human lung carcinoma epithelial cells A549 were grown in DMEM containing 10% fetal bovine serum (FBS) and 1% antibiotics. The confluent cells were then trypsinized with 0.05% trypsin and 0.53 mM EDTA, and resuspended in fresh DMEM medium. The cells were transferred into 96-well microtiter plates at a density of 3000 cells/well and were grown for 24 h. The following day, the medium was replaced by a fresh culture medium containing serially diluted compounds 3, 4, 7a, 7b, and 9, as well as the parent drug TOB at final concentrations of 0.48–62.5 μg/mL or sterile ddH2O (negative control). The cells were incubated for an additional 24 h at 37 °C with 5% CO2 in a humidified incubator. To evaluate cell survival, each well was treated with 10 μL (25 μg/mL) of resazurin sodium salt (Sigma-Aldrich) for 4–6 h. Metabolically active cells can convert resazurin (blue) to the highly fluorescent dye resorufin (pink), which was detected at λ560 excitation and λ590 emission wavelengths by using a SpectraMax M5 plate reader. Triton X-100® (1% v/v) gave the complete loss of cell viability and was used as the positive control. The percentage survival rates were calculated by using the following formula: % cell survival = [(fluorescence of sample) − (fluorescence of blank)] × 100/[(fluorescence of negative control) − (fluorescence of blank)].
For orientation: Alamar Blue is a resazurin reagent that responds to reducing activity.

In brackets after ≈: the same amount, converted by molar mass. Read-outs that look alike come from different tables or passages of the source.

Broadly, the MIC is the smallest concentration in the dilution series that meets the test's criterion for growth inhibition. By IC50 is commonly meant the point on the concentration scale where inhibition reaches its midpoint. With `CCCCCCCCCCCCc1cn(C[C@H]2O[C@H](O[C@@H]3[C@@H](O)[C@H](O[C@H]4O[C@H](CN)[C@@H](O)C[C@H]4N)[C@@H](N)C[C@H]3N)[C@H](O)[C@@H](N)[C@@H]2O)nn1` [Compound 7b, O-3-Amino-3,6-dideoxy-6-(4-dodecyl-1H-1,2,3-triazol-1-yl)-α-D-glucopyranosyl-(1→6)-O-[2,6-diamino-2,3,6-trideoxy-α-D-ribo-hexopyranosyl-(1→4)]-2-deoxy-D-streptamine], the MIC in series [1] is 1.95 µg/mL (≈ 2.84 µM); in series [2] (Aspergillus flavus, 72 h, read-out: MIC), 7.8 to 31.3 µg/mL (≈ 11.4 to 45.6 µM); in series [2] it was 7.8 µg/mL (≈ 11.4 µM); in series [3], 7.8 µg/mL (≈ 11.4 µM); in series [5] (Aspergillus nidulans, ATCC38163, 72 h, read-out: MIC), 1.95 to 3.9 µg/mL (≈ 2.84 to 5.68 µM); in series [5] it was 1.95 µg/mL (≈ 2.84 µM). Moreover, in series [4], the mRBCs lysed result was “up to 13%”. Moreover, in the series “Hemolytic activity assay” (0.48 μg/mL, mRBCs, 37 °C 1 h, ± SDEV), the hemolysis at 1 h, 0.48 μg/mL was found to be 0%. For the same molecule, the hemolysis at 1 h, 0.975 μg/mL in “Hemolytic activity assay” (0.975 μg/mL, mRBCs, 37 °C 1 h, ± SDEV) came out at 0%. The hemolysis at 1 h, 1.95 μg/mL in “Hemolytic activity assay” (1.95 μg/mL, mRBCs, 37 °C 1 h, ± SDEV) came out at 14.8 ± 3.5%. In the series “Hemolytic activity assay” (3.9 μg/mL, mRBCs, 37 °C 1 h, ± SDEV), this molecule returned a hemolysis at 1 h, 3.9 μg/mL of 13.4 ± 6.2%. The molecule further showed a hemolysis at 1 h, 7.8 μg/mL in the series “Hemolytic activity assay” (7.8 μg/mL, mRBCs, 37 °C 1 h, ± SDEV) of 24.6 ± 8.1%. In the series “Hemolytic activity assay” (15.6 μg/mL, mRBCs, 37 °C 1 h, ± SDEV), this molecule yielded a hemolysis at 1 h, 15.6 μg/mL of 40.8 ± 5.4%. For the same molecule, the hemolysis at 1 h, 31.3 μg/mL in “Hemolytic activity assay” (31.3 μg/mL, mRBCs, 37 °C 1 h, ± SDEV) was 55.5 ± 5.4%. This molecule also displayed a hemolysis at 1 h, 62.5 μg/mL in the series “Hemolytic activity assay” (62.5 μg/mL, mRBCs, 37 °C 1 h, ± SDEV) of 74.1 ± 0.8%. Also, the hemolysis at 1 h in the series “Hemolytic activity assay” (at their MIC values against the Aspergillus strains) fell in the range of 12 to 74%. For the same molecule, the IC50 in the series on A549 cell line is above 62.5 µg/mL.
